Measured values reported in PubChem BioAssay (NCI).
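Briefly, cells in 96-well plates were exposed to five compound concentrations for 48 h, and endpoints were estimated by linear interpolation. TGI is the concentration that stops growth completely.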

Experiments:
Experiment in all cases: DTP human tumour cell line panel, 48 h
[1] = tested on: 786-0 renal
[2] = tested on: A498 renal
[3] = tested on: A549 NSCLC
[4] = tested on: ACHN renal
[5] = tested on: CAKI-1 renal
[6] = tested on: CCRF-CEM leukemia
[7] = tested on: COLO 205 colon
[8] = tested on: DLD-1 colon
[9] = tested on: DMS 114 small cell lung
[10] = tested on: DMS 273 small cell lung
[11] = tested on: EKVX NSCLC
[12] = tested on: HCC-2998 colon
[13] = tested on: HCT-116 colon
[14] = tested on: HCT-15 colon
[15] = tested on: HL-60(TB) leukemia
[16] = tested on: HOP-18 NSCLC
[17] = tested on: HOP-62 NSCLC
[18] = tested on: HOP-92 NSCLC
[19] = tested on: HT29 colon
[20] = tested on: IGROV1 ovarian
[21] = tested on: K-562 leukemia
[22] = tested on: KM12 colon
[23] = tested on: LXFL 529 NSCLC
[24] = tested on: M14 melanoma
[25] = tested on: M19-MEL melanoma
[26] = tested on: MALME-3M melanoma
[27] = tested on: MOLT-4 leukemia
[28] = tested on: NCI-H226 lung
[29] = tested on: NCI-H23 lung
[30] = tested on: NCI-H460 lung
[31] = tested on: NCI-H522 lung
[32] = tested on: OVCAR-3 ovarian
[33] = tested on: OVCAR-4 ovarian
[34] = tested on: OVCAR-5 ovarian
[35] = tested on: OVCAR-8 ovarian
[36] = tested on: RPMI-8226 leukemia
[37] = tested on: RXF-631 renal
[38] = tested on: SF-268 CNS
[39] = tested on: SF-295 CNS
[40] = tested on: SF-539 CNS
[41] = tested on: SK-MEL-2 melanoma
[42] = tested on: SK-MEL-28 melanoma
[43] = tested on: SK-MEL-5 melanoma
[44] = tested on: SK-OV-3 ovarian
[45] = tested on: SN12C renal
[46] = tested on: SNB-19 CNS
[47] = tested on: SNB-75 CNS
[48] = tested on: SNB-78 CNS
[49] = tested on: SR leukemia
[50] = tested on: SW-620 colon
[51] = tested on: TK-10 renal
[52] = tested on: U251 CNS
[53] = tested on: UACC-257 melanoma
[54] = tested on: UACC-62 melanoma
[55] = tested on: UO-31 renal
[56] = tested on: XF 498 CNS
[57] = tested on: KM20L2 colon
[58] = tested on: LOX IMVI melanoma
[59] = tested on: RXF 393 renal

## CC1=C(C(=O)Nc2ccc(Cl)c(Cl)c2)C(c2ccco2)C(C(=O)Nc2ccc(Cl)c(Cl)c2)=C(C)N1
[1]
  TGI: 25.8 µM
[2]
  TGI: 26.6 µM
[3]
  TGI: 28.1 µM
[4]
  TGI: 18.2 µM
[5]
  TGI: 27.8 µM
[6]
  TGI: 27.7 µM
[7]
  TGI: 25.7 µM
[8]
  TGI: 23.4 µM
[9]
  TGI: 22.2 µM
[10]
  TGI: 32.7 µM
[11]
  TGI: 29.5 µM
[12]
  TGI: 23.9 µM
[13]
  TGI: 21.5 µM
[14]
  TGI: 24.3 µM
[15]
  TGI: 42.4 µM
[16]
  TGI: 26.7 µM
[17]
  TGI: 27.6 µM
[18]
  TGI: 31.2 µM
[19]
  TGI: 29.9 µM
[20]
  TGI: 32.6 µM
[21]
  TGI: 29 µM
[22]
  TGI: 27.3 µM
[23]
  TGI: 24.2 µM
[24]
  TGI: 18.4 µM
[25]
  TGI: 24.9 µM
[26]
  TGI: 29.5 µM
[27]
  TGI: 48 µM
[28]
  TGI: 25.6 µM
[29]
  TGI: 35.2 µM
[30]
  TGI: 31.6 µM
[31]
  TGI: 26.7 µM
[32]
  TGI: 20.2 µM
[33]
  TGI: 24.6 µM
[34]
  TGI: 29.3 µM
[35]
  TGI: 24.3 µM
[36]
  TGI: 38.4 µM
[37]
  TGI: 46 µM
[38]
  TGI: 23.9 µM
[39]
  TGI: 20.5 µM
[40]
  TGI: 27.7 µM
[41]
  TGI: 26.3 µM
[42]
  TGI: 25.3 µM
[43]
  TGI: 26.9 µM
[44]
  TGI: 28.5 µM
[45]
  TGI: 23.9 µM
[46]
  TGI: 25.8 µM
[47]
  TGI: 31.5 µM
[48]
  TGI: 41.4 µM
[49]
  TGI: 32 µM
[50]
  TGI: 28.3 µM
[51]
  TGI: 18.9 µM
[52]
  TGI: 23.9 µM
[53]
  TGI: 28.5 µM
[54]
  TGI: 26 µM
[55]
  TGI: 21.7 µM
[56]
  TGI: 7.94 µM

## c1ccc(CN(Cn2cccn2)Cn2cccn2)nc1
[1]
  TGI: > 100 µM
[2]
  TGI: > 100 µM
[3]
  TGI: > 100 µM
[4]
  TGI: > 100 µM
[5]
  TGI: > 100 µM
[6]
  TGI: > 100 µM
[7]
  TGI: > 100 µM
[8]
  TGI: > 100 µM
[9]
  TGI: > 100 µM
[10]
  TGI: > 100 µM
[11]
  TGI: > 100 µM
[13]
  TGI: > 100 µM
[14]
  TGI: > 100 µM
[15]
  TGI: > 100 µM
[17]
  TGI: > 100 µM
[18]
  TGI: > 100 µM
[21]
  TGI: > 100 µM
[22]
  TGI: > 100 µM
[57]
  TGI: > 100 µM
[58]
  TGI: > 100 µM
[23]
  TGI: > 100 µM
[24]
  TGI: > 100 µM
[25]
  TGI: > 100 µM
[27]
  TGI: > 100 µM
[29]
  TGI: > 100 µM
[30]
  TGI: > 100 µM
[31]
  TGI: > 100 µM
[32]
  TGI: > 100 µM
[33]
  TGI: > 100 µM
[35]
  TGI: > 100 µM
[36]
  TGI: 78.8 µM
[59]
  TGI: > 100 µM
[37]
  TGI: > 100 µM
[38]
  TGI: > 100 µM
[39]
  TGI: > 100 µM
[41]
  TGI: > 100 µM
[42]
  TGI: > 100 µM
[43]
  TGI: > 100 µM
[44]
  TGI: > 100 µM
[45]
  TGI: > 100 µM
[46]
  TGI: > 100 µM
[47]
  TGI: > 100 µM
[48]
  TGI: > 100 µM
[49]
  TGI: > 100 µM
[50]
  TGI: > 100 µM
[51]
  TGI: > 100 µM
[52]
  TGI: > 100 µM
[53]
  TGI: > 100 µM
[54]
  TGI: > 100 µM
[55]
  TGI: > 100 µM
[56]
  TGI: > 100 µM
